According to patent publication US10350199B2, “3-(1h-pyrrolo[2,3-b]pyridin-2-yl)-1h-indazoles and therapeutic uses thereof” (Samumed, LLC, priority 2015, dated 2019):

Columns and labels:
Assay type in all cases: cell-based
[1] = system: Wnt activity (Sp5-Luc reporter, SW480 colon carcinoma cells); assay: Wnt activity screening assay, Sp5-Luc reporter gene in SW480 cells; settings: Homo sapiens; for inhibition at 10 µM: SW480, read-out: percent inhibition at 10 μM; for EC50: Sp5-Luc reporter, SW480 cells, overnight incubation
How it was run: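 Read-out is BrightGlo luminescence, normalized to DMSO-treated cells and fitted by four-parameter variable-slope regression for EC50. Reporter cells: SW480 colon carcinoma carrying a stable lentiviral Sp5-Luc construct with eight TCF/LEF sites, seeded 4,000/well in 1% FBS, incubated overnight at 37° C.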

[2] = system: SW480 colon cancer cells; assay: Cell viability assay (CellTiter-Blue), SW480 cells, four days; settings: Homo sapiens; for EC50: 96 h, SW480 cell viability, four days, CellTiter-Blue; for inhibition at 10 µM: SW480, read-out: percent inhibition at 10 μM
How it was run: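 Fluorescence from resazurin reduced to resorufin by metabolically active cells was the read-out, taken after ~3 h with CellTiter-Blue.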

[3] = system: IL-6 (THP-1 human monocyte cell line); assay: IL-6 inhibition in LPS-stimulated THP-1 cells (HTRF); settings: for EC50: IL-6 inhibition, LPS-stimulated THP-1 cells, HTRF; for inhibition at 10 µM: THP-1, read-out: percentage in parentheses beside EC50 >10 (IL-6 inhibition)
How it was run: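 After 24 h in 1% FBS medium, cells had compound 2 h before 500 ng/mL LPS, then 22 h more at 37 °C. DMSO-normalized HTRF signal (665/620 nm ratio, anti-IL-6 antibody pair) was fitted with a variable-slope four-parameter model to give EC50.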

[4] = system: primary human fibroblasts derived from IPF patients (LL29 cells) treated with TGF-β1; assay: Inhibition of the fibrotic process: αSMA staining in TGF-β1 treated LL29 fibroblasts; settings: Fibroblast; for EC50: 96 h, LL29 cells, TGF-β1 20 ng/mL, 4 days, % αSMA positive cells; for inhibition at 10 µM: read-out: percent inhibition at 10 μM
How it was run: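 Read-out after 4-day incubation: αSMA staining with 1 μM SYTOX green nuclear counterstain (30 min, room temperature). Cells were LL29 primary fibroblasts from IPF patients, in 1% FBS F12, exposed to TGF-β1 with test compound, referenced to TGF-β1/DMSO control wells.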

[5] = system: primary human mesenchymal stem cells (hMSCs); assay: Induction of chondrogenesis in human mesenchymal stem cells (nodule area, Rhodamine B/Nile Red); settings: hMSC chondrogenesis; for EC50: concentration required to induce 50% levels of chondrogenesis of TGF-β3 positive control, read-out: Conc (nM) of 50% TGF-β3 activity; for Emax: relative to TGF-β3 (10 ng/mL) positive control, read-out: Max. Activity as % TGF-β3 activity
Source text: Representative compounds were screened using primary human mesenchymal stem cells (hMSCs) to determine their ability to induce chondrogenesis (process by which cartilage is developed).
Primary human mesenchymal stem cells (hMSCs) were purchased from Lonza (Walkersville, Md.) and expanded in Mesenchymal Stem Cell Growth Media (Lonza). Cells between passage 3 and 6 were used for the experiments.
Area of nodules in each well was normalized to the average of 3 DMSO treated wells on the same plate using Excel (Microsoft Inc.). The normalized averages (fold change over DMSO) of 2 or 3 replicate wells for each compound concentration were calculated. Due to solubility limitations of some of the compounds, curve fitting was incomplete leading to inaccurate EC50 determinations.
Using TGF-β3 as a positive control, the concentration of representative compounds required to induce 50% levels of chondrogenesis is reported. In addition, the maximum activity of each compound and the respective dose that each compound reached maximum chondrogenesis activity is reported.

Compound	inhibition at 10 µM [1]	EC50 [1]	EC50 [2]	inhibition at 10 µM [2]	EC50 [3]	EC50 [4]	EC50 [5]	Emax [5]	inhibition at 10 µM [3]	inhibition at 10 µM [4]
c1cnc2[nH]c(-c3n[nH]c4ccc(-c5cncnc5)cc34)cc2c1 [Compound 279, 5-(Pyrimidin-5-yl)-3-(1H-pyrrolo[2,3-b]pyridin-2-yl)-1H-indazole]	16.6%	> 10 µM	> 10 µM	17.9%	0.14 µM	9.84 µM	10 nM	84%	–	–
Fc1cccc(-c2ccnc3[nH]c(-c4n[nH]c5ccc(C6CCNCC6)cc45)cc23)c1 [Compound 505, 3-(4-(3-Fluorophenyl)-1H-pyrrolo[2,3-b]pyridin-2-yl)-5-(piperidin-4-yl)-1H-indazole]	–	0.563 µM	0.465 µM	–	0.166 µM	0.335 µM	900 nM	103%	–	–
CN1CCN(c2ccnc3[nH]c(-c4n[nH]c5ccc(-c6cncc(NC(=O)CC7CCNCC7)c6)cc45)cc23)CC1 [Compound 641, N-(5-(3-(4-(4-Methylpiperazin-1-yl)-1H-pyrrolo[2,3-b]pyridin-2-yl)-1H-indazol-5-yl)pyridin-3-yl)-2-(piperidin-4-yl)acetamide]	10.8%	> 10 µM	> 10 µM	16.2%	> 10 µM	> 10 µM	–	17%	26%	23.5%
CN(C)Cc1cncc(-c2cc3c(-c4cc5c(-c6cccc(F)c6)ccnc5[nH]4)n[nH]c3cc2F)c1 [Compound 993, 1-(5-(6-Fluoro-3-(4-(3-fluorophenyl)-1H-pyrrolo[2,3-b]pyridin-2-yl)-1H-indazol-5-yl)pyridin-3-yl)-N,N-dimethylmethanamine]	–	> 10 µM	2.4 µM	–	0.852 µM	1.63 µM	–	28%	–	–
c1cncc(-c2ccc3[nH]nc(-c4cc5c(N6CCCCC6)ccnc5[nH]4)c3c2)c1 [Compound 172, 3-(4-(Piperidin-1-yl)-1H-pyrrolo[2,3-b]pyridin-2-yl)-5-(pyridin-3-yl)-1H-indazole]	48.2%	> 10 µM	> 10 µM	8.9%	> 10 µM	> 10 µM	2700 nM	162%	31.8%	25.1%
Fc1ccc(-c2ccnc3[nH]c(-c4n[nH]c5ccc(-c6cncc(CN7CCCC7)c6)cc45)cc23)cc1 [Compound 42, 3-(4-(4-Fluorophenyl)-1H-pyrrolo[2,3-b]pyridin-2-yl)-5-(5-(pyrrolidin-1-ylmethyl)pyridin-3-yl)-1H-indazole]	14.8%	> 10 µM	1.51 µM	–	> 10 µM	2.93 µM	–	22%	40.2%	–
c1cncc(-c2ccnc3[nH]c(-c4n[nH]c5ccc(-c6cncc(CN7CCCCC7)c6)cc45)cc23)c1 [Compound 99, 5-(5-(Piperidin-1-ylmethyl)pyridin-3-yl)-3-(4-(pyridin-3-yl)-1H-pyrrolo[2,3-b]pyridin-2-yl)-1H-indazole]	18.6%	> 10 µM	> 10 µM	50.6%	> 10 µM	> 10 µM	30 nM	62%	0%	4%
Cn1cc(-c2ccc3[nH]nc(-c4cc5c(-c6cccnc6)ccnc5[nH]4)c3c2)cn1 [Compound 556, 5-(1-Methyl-1H-pyrazol-4-yl)-3-(4-(pyridin-3-yl)-1H-pyrrolo[2,3-b]pyridin-2-yl)-1H-indazole]	20%	> 10 µM	> 10 µM	0%	0.586 µM	0.191 µM	–	28%	–	–
